The source of these data is ChEMBL document CHEMBL1201862, “PubChem BioAssay data set” (2004).

Calls of active or inactive are those of the source.

The nature of experiment [1]: inhibitors of firefly luciferase expression or activity, dose response, H4 neuroglioma cells, luminescence (AID 1990). In kind it is functional, cell-based.
Experiment [2] can be described thus: luciferase reporter signal reduction – luminescence, H4-C neuroglioblastoma cells, dose response (AID 2458).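 Note: H4 neuroglioblastoma cells stably carrying a luciferase reporter gene fusion.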 Format: functional, cell-based. Background: A reporter such as luciferase makes a cellular process visible.
Experiment [3] has as its system Streptococcus sp. 'group A'. Nature of the experiment: growth inhibition of control SK(-) GAS strain, dose response, counter-screen for streptokinase expression inhibitor project, luminescence, kanamycin, BacTiterGlo, confirmation (AID 1900). Format: functional, organism-based. (In general: The purpose of a counterscreen is to sort out artefacts and off-target activity.)

A further experiment is described as follows: cells. Format: functional, cell-based.
A short description of experiment [4]: Luminescence Cell-Based Dose Response HTS to Identify Inhibitors of 5'UTR Stem-Loop Driven Prion Protein mRNA Translation in H4 Neuroglioblastoma Cells. [Related pubchem assays: 1827 (Project Summary), 1813 (Primary HTS)]. In kind it is functional.
Experiment [5] can be described thus: inhibitors of SNCA 5'UTR-driven reporter translation, confirmation, H4 neuroglioma cells, luminescence (AID 1988). Format: functional, cell-based.
The target in the next experiment is T1, Streptokinase A (Streptococcus pyogenes serotype M1, UniProt P10520).
T1 sequence (P10520 whole entry): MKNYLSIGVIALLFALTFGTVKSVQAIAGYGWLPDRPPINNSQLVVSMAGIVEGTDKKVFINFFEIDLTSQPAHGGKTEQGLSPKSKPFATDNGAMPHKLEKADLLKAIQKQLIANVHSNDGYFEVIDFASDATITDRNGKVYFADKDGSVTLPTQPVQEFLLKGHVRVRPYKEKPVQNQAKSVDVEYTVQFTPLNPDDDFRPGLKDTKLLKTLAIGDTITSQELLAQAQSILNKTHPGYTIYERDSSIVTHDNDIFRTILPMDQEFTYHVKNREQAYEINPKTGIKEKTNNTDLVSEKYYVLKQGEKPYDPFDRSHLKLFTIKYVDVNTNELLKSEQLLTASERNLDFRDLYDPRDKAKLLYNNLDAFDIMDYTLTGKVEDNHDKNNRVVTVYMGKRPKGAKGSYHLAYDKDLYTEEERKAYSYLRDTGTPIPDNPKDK
Nature of the experiment: S. pyogenes streptokinase expression inhibitors, potency, dose response, plasminogen activation absorbance, OD405 (AID 1914).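 Note: secreted streptokinase activity via plasminogen activation per viability signal from cell pellet.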 In kind it is functional, Streptococcus pyogenes M1 GAS.

A short description of experiment [6]: cytotoxicity in HPDE-C7 cells, cell-based, fluorescence, HTS (AID 430). Format: functional. Conditions: Homo sapiens.
Experiment [7] can be described thus: cytotoxicity in KRAS-transformed pancreatic duct cells, primary screen, cell-based, fluorescence, HTS (AID 431).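 Note: cell line used: HPDE-C7K.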 Format: functional. Conditions: Homo sapiens.
Another experiment addresses T2, Estrogen receptor (Homo sapiens, UniProt P03372).
T2 sequence (P03372 whole entry): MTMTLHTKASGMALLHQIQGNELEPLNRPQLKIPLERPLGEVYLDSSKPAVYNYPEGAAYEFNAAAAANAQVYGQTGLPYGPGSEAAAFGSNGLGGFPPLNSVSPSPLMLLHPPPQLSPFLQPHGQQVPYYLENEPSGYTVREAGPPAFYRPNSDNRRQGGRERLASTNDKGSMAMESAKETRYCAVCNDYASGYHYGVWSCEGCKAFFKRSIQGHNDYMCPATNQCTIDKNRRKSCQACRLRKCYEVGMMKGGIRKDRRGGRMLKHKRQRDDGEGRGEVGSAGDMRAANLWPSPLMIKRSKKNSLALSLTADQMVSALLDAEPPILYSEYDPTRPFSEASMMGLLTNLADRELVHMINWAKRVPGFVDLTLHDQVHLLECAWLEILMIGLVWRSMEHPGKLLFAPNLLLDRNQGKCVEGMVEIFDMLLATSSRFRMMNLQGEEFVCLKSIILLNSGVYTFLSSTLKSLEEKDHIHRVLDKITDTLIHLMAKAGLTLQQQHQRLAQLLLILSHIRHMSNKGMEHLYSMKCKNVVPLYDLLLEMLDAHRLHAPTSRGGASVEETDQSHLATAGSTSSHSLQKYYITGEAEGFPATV
Nature of the experiment: potentiators of ERα–SRC-1 coactivator binding, dose response, biochemical, TR-FRET, ERα LBD (AID 737). (TR-FRET usually uses a lanthanide donor and a delayed reading to cut background.)

Another experiment has as its system Streptococcus. Nature of the experiment: Group A Streptococcus viability loss, dose response, counter-screen for streptokinase expression inhibitor project, luminescence, BacTiterGlo (AID 1915).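 Note: potency for reduction of bacterial viability or growth.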 Format: functional, organism-based.
The nature of experiment [8]: inhibitors of SNCA 5'UTR-driven translation, confirmation, luminescence, H4 neuroglioblastoma cells, dose confirmation (AID 2454).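 Note: H4 neuroglioblastoma cells carrying an alpha-synuclein 5'UTR luciferase reporter; potency for inhibition of the luciferase signal.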 In kind it is functional, cell-based.
Experiment [9] is described as follows: cytotoxicity in HEK-293T cells, dose response, cytotoxicity control for TCR NF-kB inhibitor project, luminescence, T-cell screen hits (AID 489026).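 Note: cells exposed to compound about 14 hours before the viability readout.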 Format: functional, cell-based.
Experiment [10] has as its target T3, Neuropeptide Y receptor type 1 (Homo sapiens, UniProt P25929).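 Note: HEK293 cells with a CNG channel challenged with NPY then isoproterenol; potency as antagonist that reverses NPY suppression of cAMP signal.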
T3 sequence (P25929 whole entry): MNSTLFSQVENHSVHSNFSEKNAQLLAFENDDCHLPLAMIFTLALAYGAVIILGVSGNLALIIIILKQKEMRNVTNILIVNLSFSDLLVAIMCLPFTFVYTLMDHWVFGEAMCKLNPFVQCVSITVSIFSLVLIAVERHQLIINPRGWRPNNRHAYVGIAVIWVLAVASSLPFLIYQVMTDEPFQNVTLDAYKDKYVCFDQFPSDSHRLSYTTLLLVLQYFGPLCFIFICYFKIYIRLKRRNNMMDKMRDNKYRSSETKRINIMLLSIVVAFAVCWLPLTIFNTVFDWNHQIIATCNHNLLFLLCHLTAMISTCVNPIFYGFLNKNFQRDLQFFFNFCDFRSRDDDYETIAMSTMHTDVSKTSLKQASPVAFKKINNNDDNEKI
In kind it is functional.

Experiment [11] concerns the target T4, Neuropeptide Y receptor type 2 (Homo sapiens, UniProt P49146).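 Note: HEK293 cells expressing the receptor and a CNG channel; stimulus was NPY near EC95 followed by isoproterenol to raise cAMP; antagonist potency measured as restoring cAMP signal that NPY suppresses.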
T4 sequence (P49146 whole entry): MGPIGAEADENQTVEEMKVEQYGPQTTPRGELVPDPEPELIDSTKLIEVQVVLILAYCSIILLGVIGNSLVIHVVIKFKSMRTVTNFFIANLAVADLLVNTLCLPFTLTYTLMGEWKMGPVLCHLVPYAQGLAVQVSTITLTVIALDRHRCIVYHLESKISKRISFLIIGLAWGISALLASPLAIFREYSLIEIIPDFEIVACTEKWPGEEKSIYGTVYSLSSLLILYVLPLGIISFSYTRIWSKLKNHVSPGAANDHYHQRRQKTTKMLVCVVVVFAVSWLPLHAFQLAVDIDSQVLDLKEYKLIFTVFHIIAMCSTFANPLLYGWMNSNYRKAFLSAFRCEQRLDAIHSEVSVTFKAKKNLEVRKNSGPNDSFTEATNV
Format: functional, cell-based.

Experiment [12] has as its target G-protein coupled receptor 35 (Homo sapiens, UniProt Q9HC97). Nature of the experiment: GPR35 antagonists blocking zaprinast-driven arrestin recruitment, primary screen, imaging, U2OS, beta-arrestin-GFP, zaprinast agonist (AID 2058).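 Note: antagonist potency meaning inhibition of agonist-induced arrestin redistribution.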 Format: functional.
Experiment [13] deals with Neurotensin receptor type 1 (Homo sapiens, UniProt P30989). In kind it is functional.
Another experiment addresses Cytochrome P450 3A4 (Homo sapiens, UniProt P08684). Conditions: Potency.
In experiment [14] the target is Melanin-concentrating hormone receptor 1 (Homo sapiens, UniProt Q99705). In words: Late-stage fluorescence-based counterscreen for antagonists of the G-protein coupled receptor 7 (GPR7): cell-based dose response assay to identify antagonists of the melanin-concentrating hormone receptor 1 (MCHR1). [Related pubchem assays (depositor defined):AID1861, AID1880, AID1952, AID2148, AID2251, AID2257, AID485339]. In kind it is functional.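 Note: stimulated with 30 nM MCH peptide agonist.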

The target of experiment [15] is T5, SUMO-activating enzyme (Homo sapiens, UniProt Q9UBT2). Nature of the experiment: SUMOylation inhibitor hit validation, confirmation, SUMOylation inhibitor project, biochemical, AlphaScreen (AID 2018). Format: functional.
Experiment [16] has as its target T5, SUMO-activating enzyme. Nature of the experiment: inhibitors of in vitro SUMOylation cascade, primary screen, biochemical, HTRF, uHTS (AID 2006). In kind it is protein-complex assay.
Experiment [17] addresses 26S proteasome non-ATPase regulatory subunit 14 (Homo sapiens, UniProt O00487). In words: inhibition of proteasome subunit RPN11 – biochemical, fluorescence polarization, uHTS hits, confirmation (AID 602368). Format: functional.
Experiment [18] addresses 72 kDa type IV collagenase (Homo sapiens, UniProt P08253). Nature of the experiment: Dose Response validation of uHTS RPN11 inhibitor hits using a MMP-2 Fluorescence assay. In kind it is functional.
The next experiment deals with Prothrombin (Bos taurus, UniProt P00735). In words: thrombin inhibition, dose response, biochemical, fluorescence polarization, uHTS hits (AID 602369). In kind it is functional.
In experiment [19] the target is T6, Small ubiquitin-related modifier 1 (Homo sapiens, UniProt P63165). In words: inhibitors of SUMO1 peptide binding, dose response, biochemical, fluorescence polarization, uHTS hits (AID 624382). In kind it is functional. Conditions: read-out: IC50_Mean.
The target of experiment [20] is T6, Small ubiquitin-related modifier 1. Nature of the experiment: inhibitors of SUMO1 partner interactions, dose response, biochemical, FRET (AID 624383). Conditions: read-out: IC50_Mean. Format: functional.
A short description of experiment [21]: Luminescence Cell-Based Dose Retest to Confirm Inhibitors of Cancer Stem Cells. [Related pubchem assays (depositor defined):AID2717, AID2721]. In kind it is functional. Conditions: Homo sapiens.

T5 sequence (Q9UBE0 whole entry): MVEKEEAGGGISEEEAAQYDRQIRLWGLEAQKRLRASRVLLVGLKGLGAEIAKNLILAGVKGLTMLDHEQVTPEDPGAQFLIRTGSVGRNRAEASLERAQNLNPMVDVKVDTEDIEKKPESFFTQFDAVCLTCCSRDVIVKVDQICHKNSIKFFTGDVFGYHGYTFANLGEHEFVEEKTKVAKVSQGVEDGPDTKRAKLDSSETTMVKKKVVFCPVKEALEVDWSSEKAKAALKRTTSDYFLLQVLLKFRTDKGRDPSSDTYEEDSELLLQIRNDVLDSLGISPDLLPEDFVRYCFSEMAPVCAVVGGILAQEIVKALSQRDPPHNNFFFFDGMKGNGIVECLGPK
T5 sequence (Q9UBT2 whole entry): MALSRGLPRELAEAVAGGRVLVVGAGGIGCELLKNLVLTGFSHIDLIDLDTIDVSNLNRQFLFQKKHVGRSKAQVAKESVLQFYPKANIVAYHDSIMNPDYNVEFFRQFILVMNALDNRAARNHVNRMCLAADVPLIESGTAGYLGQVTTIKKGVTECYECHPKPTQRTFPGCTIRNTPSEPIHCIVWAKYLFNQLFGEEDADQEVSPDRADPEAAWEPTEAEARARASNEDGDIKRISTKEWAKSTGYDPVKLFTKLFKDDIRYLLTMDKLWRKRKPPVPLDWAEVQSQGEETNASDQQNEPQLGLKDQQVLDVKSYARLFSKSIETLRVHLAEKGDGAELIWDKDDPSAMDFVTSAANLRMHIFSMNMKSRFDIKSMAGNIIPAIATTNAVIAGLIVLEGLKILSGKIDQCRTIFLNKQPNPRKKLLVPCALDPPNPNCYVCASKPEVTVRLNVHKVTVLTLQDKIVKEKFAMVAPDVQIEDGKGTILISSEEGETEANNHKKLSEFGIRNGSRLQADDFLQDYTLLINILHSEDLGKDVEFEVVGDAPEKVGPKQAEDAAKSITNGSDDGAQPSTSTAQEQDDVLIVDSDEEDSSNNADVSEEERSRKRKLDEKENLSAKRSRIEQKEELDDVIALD
Sequence of Neurotensin receptor type 1 (P30989 whole entry): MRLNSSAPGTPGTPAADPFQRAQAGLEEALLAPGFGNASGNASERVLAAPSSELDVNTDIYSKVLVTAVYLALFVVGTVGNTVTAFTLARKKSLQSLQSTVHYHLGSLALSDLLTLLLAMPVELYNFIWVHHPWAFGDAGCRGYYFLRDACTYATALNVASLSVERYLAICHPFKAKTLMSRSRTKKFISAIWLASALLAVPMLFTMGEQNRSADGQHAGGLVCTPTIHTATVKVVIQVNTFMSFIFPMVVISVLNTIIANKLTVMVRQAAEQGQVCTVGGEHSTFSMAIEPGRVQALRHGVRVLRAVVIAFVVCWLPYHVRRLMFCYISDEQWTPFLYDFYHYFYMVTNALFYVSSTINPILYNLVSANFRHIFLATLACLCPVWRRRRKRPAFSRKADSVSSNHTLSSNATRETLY
T6 sequence (P63165 whole entry): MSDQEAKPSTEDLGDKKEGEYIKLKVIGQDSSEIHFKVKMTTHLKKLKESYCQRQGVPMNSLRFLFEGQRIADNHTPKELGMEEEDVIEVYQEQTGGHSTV
Sequence of Cytochrome P450 3A4 (P08684 whole entry): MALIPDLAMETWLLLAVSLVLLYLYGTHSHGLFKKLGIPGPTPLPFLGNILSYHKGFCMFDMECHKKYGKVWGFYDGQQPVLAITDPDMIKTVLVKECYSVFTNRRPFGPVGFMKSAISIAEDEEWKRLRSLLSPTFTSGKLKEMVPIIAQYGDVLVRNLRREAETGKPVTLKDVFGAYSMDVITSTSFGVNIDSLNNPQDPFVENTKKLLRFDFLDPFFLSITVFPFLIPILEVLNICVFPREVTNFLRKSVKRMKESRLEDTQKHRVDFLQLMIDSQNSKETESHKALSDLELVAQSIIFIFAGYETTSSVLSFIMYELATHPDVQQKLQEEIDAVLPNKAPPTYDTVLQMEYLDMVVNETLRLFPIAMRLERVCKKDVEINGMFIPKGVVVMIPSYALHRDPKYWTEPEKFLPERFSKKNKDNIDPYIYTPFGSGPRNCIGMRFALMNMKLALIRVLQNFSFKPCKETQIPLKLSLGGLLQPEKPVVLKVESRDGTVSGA
Sequence of Melanin-concentrating hormone receptor 1 (Q99705 whole entry): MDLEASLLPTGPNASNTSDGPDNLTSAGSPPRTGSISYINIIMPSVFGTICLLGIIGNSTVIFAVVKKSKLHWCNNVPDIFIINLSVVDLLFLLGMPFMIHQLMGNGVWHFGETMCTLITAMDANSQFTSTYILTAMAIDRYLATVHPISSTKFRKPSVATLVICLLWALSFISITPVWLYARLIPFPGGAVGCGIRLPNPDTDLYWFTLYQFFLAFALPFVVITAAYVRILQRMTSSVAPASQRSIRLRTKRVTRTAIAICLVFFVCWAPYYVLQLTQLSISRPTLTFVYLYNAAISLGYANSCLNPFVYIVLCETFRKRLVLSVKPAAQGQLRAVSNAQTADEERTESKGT
Sequence of 72 kDa type IV collagenase (P08253 whole entry): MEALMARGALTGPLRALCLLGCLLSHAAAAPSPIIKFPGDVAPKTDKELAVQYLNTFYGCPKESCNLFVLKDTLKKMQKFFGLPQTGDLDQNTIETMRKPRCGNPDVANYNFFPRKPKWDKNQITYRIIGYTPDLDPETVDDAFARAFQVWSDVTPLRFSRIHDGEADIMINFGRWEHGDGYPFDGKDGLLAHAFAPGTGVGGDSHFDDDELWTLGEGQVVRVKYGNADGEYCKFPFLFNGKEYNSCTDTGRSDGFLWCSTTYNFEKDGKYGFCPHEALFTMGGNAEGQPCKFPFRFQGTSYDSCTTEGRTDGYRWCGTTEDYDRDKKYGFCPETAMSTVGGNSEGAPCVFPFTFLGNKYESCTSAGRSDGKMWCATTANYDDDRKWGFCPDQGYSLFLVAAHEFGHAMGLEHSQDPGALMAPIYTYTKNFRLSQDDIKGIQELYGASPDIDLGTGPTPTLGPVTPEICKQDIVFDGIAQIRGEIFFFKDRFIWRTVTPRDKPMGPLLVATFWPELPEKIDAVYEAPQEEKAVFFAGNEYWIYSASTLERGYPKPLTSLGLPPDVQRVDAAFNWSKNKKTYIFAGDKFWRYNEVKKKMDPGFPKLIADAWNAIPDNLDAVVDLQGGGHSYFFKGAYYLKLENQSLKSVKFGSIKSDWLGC
Sequence of G-protein coupled receptor 35 (Q9HC97 whole entry): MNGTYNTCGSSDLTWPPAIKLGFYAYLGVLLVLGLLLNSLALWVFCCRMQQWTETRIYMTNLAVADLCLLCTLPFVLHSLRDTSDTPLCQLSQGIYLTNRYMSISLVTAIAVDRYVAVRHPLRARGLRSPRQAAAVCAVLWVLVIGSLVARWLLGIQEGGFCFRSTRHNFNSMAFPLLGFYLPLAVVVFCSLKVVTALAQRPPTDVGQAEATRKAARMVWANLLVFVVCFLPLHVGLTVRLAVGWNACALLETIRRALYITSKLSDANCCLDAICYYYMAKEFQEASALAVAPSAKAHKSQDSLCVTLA
Sequence of 26S proteasome non-ATPase regulatory subunit 14 (O00487 whole entry): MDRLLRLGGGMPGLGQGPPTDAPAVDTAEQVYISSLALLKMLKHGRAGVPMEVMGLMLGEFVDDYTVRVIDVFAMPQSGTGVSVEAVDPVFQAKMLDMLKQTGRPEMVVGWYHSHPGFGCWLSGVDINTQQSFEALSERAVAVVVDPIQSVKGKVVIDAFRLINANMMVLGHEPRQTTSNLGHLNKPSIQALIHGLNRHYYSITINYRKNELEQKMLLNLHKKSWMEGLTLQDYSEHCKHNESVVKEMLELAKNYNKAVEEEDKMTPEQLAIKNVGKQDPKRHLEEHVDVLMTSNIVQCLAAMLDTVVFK

Broadly, the EC50 is the midpoint of the concentration-response curve. On to `CCN(CC)c1ccc(-c2nn3c(-c4ccccc4OC)nnc3s2)cc1`, for which the EC50 in experiment [1] is < 100 nM (active); in experiment [2], 214 nM (active); in experiment [3], 6.86 µM (active); in the experiment “cells”, 346 nM (active); in experiment [4], 8.94 µM (active); in [5] it was < 100 nM (active). For the same molecule, the EC50 at Streptokinase A was > 150 µM (not active); in experiment [6], > 20 µM (not active); in [7] it was > 20 µM (not active); at Estrogen receptor, 18.2 µM (active); in the experiment on Streptococcus, 8.67 µM (active); in [8] it was 170 nM (active). Moreover, in [9], the IC50 is 49.9 µM (inactive).

Regarding `COC(=O)c1cc2occc2n1Cc1nc(-c2ccccc2Cl)oc1C`, the figures for the IC50 in experiment [10] and in experiment [11] were 7.7 µM (active) and 8.2 µM (active), respectively.

In the case of `CCOC(=O)c1c(-c2ccccc2)csc1NC(=O)/C(C#N)=C/c1ccc(O)c(OC)c1`, the IC50 in [12] was 2.75 µM (active).

As to `Cc1cccc(NC(=O)c2nc[nH]c2C(=O)N[C@@H](Cc2ccccc2)C(=O)OC(C)(C)C)c1`, the results for the EC50 (at Streptokinase A; in experiment [13]) were > 150 µM (not active) and 17.9 µM (active), respectively.

A word on the AC50: it is the midpoint of the concentration-response curve, whichever way the signal moves. Take `CCCn1c(-c2ccc(F)cc2)nc2c(NCC3CCN(C)CC3)nc(C)nc21`: at Cytochrome P450 3A4, the concentration at half-maximal activity (AC50) was 15.8 µM (inconclusive).

Regarding `COc1ccc(-c2[nH]nc3c2C(c2ccc(OC)c(OC)c2)N(c2ccccc2)C3=O)cc1` (stereo not given), the IC50 in [10] was 7.8 µM (active); in experiment [11], 4.36 µM (active).

Take `CC(=O)OC1CC2C(C)(C)C=CC(=O)[C@@]2(C)C2CC[C@@]3(C)C(c4ccoc4)OC(=O)C4OC43[C@]12C` (stereo not given in full): the AC50 at Cytochrome P450 3A4 was 15.8 µM (inconclusive).

In the case of `COc1ccc(Oc2c(Cl)cnn(-c3cccc4c3CCCC4)c2=O)cc1`, the IC50 in experiment [14] was 4.1 µM (active).

Turning to `Sc1nnc(-c2cc(-c3ccccc3)[nH]n2)n1/N=C/c1cccc(Cl)c1`, the EC50 in experiment [3] is 16.7 µM (active); on Streptokinase A it was > 150 µM (not active); in the experiment with Streptococcus it was 84.4 µM (active). Moreover, the IC50 at SUMO-activating enzyme [15] is 3.34 µM (active); on SUMO-activating enzyme [16], 11.1 µM (active); in experiment [17], 11.4 µM (active); in experiment [18], > 100 µM (inactive); on Prothrombin it was 33.8 µM (active); in experiment [19], > 66.6 µM (inactive). The IC50 in [20] is 5.8 µM (active).

For `CCCCNc1c(-c2cccc(Sc3ccc(OC)cc3)c2)nc2ccccn12`, the AC50 in experiment [21] was 5.22 µM (active). In addition, the EC50 in [13] was 27.5 µM (inactive).
